Results: PMC6337650 (Molecules, 2018)
Where two headings read alike, the source gives them in different places.

What was measured:
L02 cells = assay: MTT assay on normal liver cells L02; format: cell-based; conditions: Homo sapiens
Procedure: The antiproliferative activity of the target compounds against a normal L02 cell line and the three different human cancer cell lines viz. colorectal (HCT-116), liver (BEL-7402) and liver (HepG2) were evaluated using a standard MTT-based colorimetric assay. All cell lines were obtained from the Key Laboratory of Natural Resources and Functional Molecules of the Changbai Mountain (Yanbian University, Jilin, China) and maintained in Dulbecco’s modified Eagle’s medium (DMEM) and RPMI Media 1640 (RPMI1640), supplemented with 10% fetal bovine serum (FBS) at 37 °C in a humidified atmosphere containing 5% CO2.
Cells were plated in 96-well plates at appropriate densities to ensure exponential growth throughout the experimental period (9 × 10^3 cells per well) and then allowed to adhere for 24 h. Cells were then treated for 48 h with four serial concentrations (1, 10, 50 and 100 µM) of each compound. […] After 48 h of incubation, 10 µL of MTT solution was added to each well to a final concentration of 2 mg/mL. Plates were then incubated for a further 4 h. After incubation, the MTT solution was removed and 150 µL of DMSO was added to each well for coloration. The plates were shaken vigorously for 10 min at room temperature to ensure complete solubilization. The optical density (OD) was read on a microplate reader (ELx800, BioTek, Highland Park, Winooski, VT, USA) at a wavelength of 492 nm and the data were subsequently analyzed. The percentage of cell growth inhibition was calculated from the following equation: Inhibitory rate (%) = [(1 − (ODtreated-ODblank)/(ODcontrol-ODblank)] × 100.(1)

Cyclin E1 = assay: Western blot, cyclin E1 in HCT-116 cells; format: cell-based, human; conditions: HCT-116, 5, 10 and 15 μM, 24 h, concentration-dependent
Procedure: (§1) HCT-116 cells were cultured with different concentrations of compound 5d for 24 h. Then, the floating cells was collected and washed two times with ice cold PBS. The pellet was resuspended in lysis buffer. After the cells were lysed on ice for 20 min, lysates were centrifuged at 12,000 rpm at 4 °C for 15 min. The protein concentration in the supernatant was determined using BCA protein assay reagents. Equal amounts of protein (50 μg) were resolved using sodium dodecyl sulphate-polyacrylamide gel electrophoresis (SDS-PAGE) (8−12% acrylamide gels) and transferred to a PVDF Hybond-P membrane. Membranes were blocked with PBS containing 5% non-fat milk for 1 h at room temperature. Membranes were then incubated with primary antibodies against Cyclin A (ENT1167, Elabscience, Wuhan, China), Cyclin E1 (ENT1176, Elabscience, Wuhan, China), Cyclin B1 (ENT1169, Elabscience, Wuhan, China) and β-actin (ENM0028, Elabscience, Wuhan, China), with gentle rotation overnight at 4 °C. Membranes were next incubated with fluorescent secondary antibodies for 2 h. Proteins were detected by electrochemiluminescence (Bio-Rad, Hercules, CA, USA).

HCT-116 cells = assay: Colony formation assay; format: cell-based; conditions: Homo sapiens, HCT-116, 168 h, 7 days, read-out: inhibition rate of colony formation
Procedure: Exponentially growing determined HCT-116 cells (6 × 10^2 per well) were plated in 6-well plates with the Roswell Park Memorial Institute (RPMI) 1640 culture medium (Gibco, USA) containing with 10% fetal bovine serum (FBS) (Gibco, Waltham, MA, USA). After an overnight incubation, the culture medium was removed and replaced fresh medium. Then, the cells were treated with various concentrations of compound 5d (5, 10 and 15 μM) dissolved in DMSO. Some cells were treated with DMSO only as a negative control. The cells were then incubated for another 7 days. Finally, the cells were fixed with 4% paraformaldehyde for 30 min and stained with 0.1% crystal violet for 15 min at room temperature, after which, the staining was washed with PBS until the colonies were totally cleared.

Cyclin A = assay: Western blot, cyclin A in HCT-116 cells; format: cell-based, human; conditions: HCT-116, 5, 10 and 15 μM, 24 h, concentration-dependent
Procedure: as §1

Compound: Cc1ccc(-n2cc(CNC(=O)COC(=O)[C@]3(C)CCC[C@@]4(C)[C@@H]5CC[C@@]6(C)C[C@]5(CC[C@@H]43)CC6=O)nn2)cc1 [Compound 5d, 2-oxo-2-(((1-(p-tolyl)-1H-1,2,3-triazol-4-yl)methyl)amino)ethyl(4R,4aS,6aR,9S,11aR,11bS)-4,9,11b-trimethyl-8-oxotetradecahydro-6a,9-methanocyclohepta[a]naphthalene-4-carboxylate]
- IC50 (L02 cells; normal cell line, Table 3, read-out: (IC50, μM) L02): 161 ± 1.96 µM
- IC50 (L02 cells; normal liver cells, 48 h, MTT, Table 2, read-out: IC50 Values (μM) L02): > 100 µM
- cyclin E1 protein level (Cyclin E1): decreased
- inhibition at 15 µM (HCT-116 cells): 84%
- cyclin A protein level (Cyclin A): decreased
